According to patent publication EP0171342A1, “Substituted 2-(1-amino-akylidenyl)1,3-indane diones, process for their preparation and their therapeutical use” (priority 1984, dated 1986):
Converted amounts (≈) assume the structure as drawn. Where two headings read alike, the source gives them in different places.

Key:
[1] = test system: strips de veines mésentériques porte de rats normotendus; experiment: Calcium antagonist activity: spontaneous contractions of rat portal mesenteric vein strips; settings: 10 microg/ml
[2] = biological target: oreillettes droites de cobaye (Cavia porcellus, UniProt P47747); experiment: Anti-H2 activity: histamine-induced chronotropic effect on unstimulated guinea pig right atria
oreillettes droites de cobaye, sequence (P47747 whole entry): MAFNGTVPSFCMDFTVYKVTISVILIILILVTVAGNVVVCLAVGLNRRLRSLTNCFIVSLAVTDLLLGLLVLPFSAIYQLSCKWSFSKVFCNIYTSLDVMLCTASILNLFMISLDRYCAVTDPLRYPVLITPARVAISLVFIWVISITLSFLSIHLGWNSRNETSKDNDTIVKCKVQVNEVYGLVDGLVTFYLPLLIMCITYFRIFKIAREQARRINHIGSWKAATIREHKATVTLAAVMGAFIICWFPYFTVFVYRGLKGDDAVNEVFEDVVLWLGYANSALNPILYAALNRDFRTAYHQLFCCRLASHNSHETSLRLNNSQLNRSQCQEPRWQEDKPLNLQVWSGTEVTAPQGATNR

[3] = test system: souris; experiment: Acute toxicity (mortality, LD50) in mice; format: in vivo; settings: mouse
[4] = test system: souris; experiment: Antidepressant activity: inhibition of reserpine-induced ptosis in mice; format: in vivo; settings: mouse, oral 50 mg/kg 90 min before reserpine 5 mg/kg i.p.; index 0 (maximum ptosis) to 6 (no ptosis)
Method: L'activité antidépressive a été déterminée dans le test de potentialisation de la toxicité de la yohimbine et dans le test de l'inhibition du ptosis induit par la réserpine.
On injecte par voie sous cutanée à des souris, lh avant l'administration par voie orale du produit à tester, une dose non léthale de yohimbine soit 15 mg/kg. Le COR3760 administré à la dose de 100 mg/kg entraine 80% de mortalité dans ces conditions. Des souris reçoivent par voie orale le produit à tester 90 mn avant l'injection par voie intrapéritonéale de 5 mg/kg de réserpine solubilisée. On cote le ptosis selon un index allant de 0 à 6, la cote 0 correspondant à un ptosis maximum et la cote 6 à l'absence de ptosis. Les COR3760 et COR4011 conduisent dans les conditions de l'expérience à un ptosis coté à 4 pour une dose de respectivement 200 et 50 mg/kg.

[5] = test system: oreillette gauche de cobaye; experiment: Calcium antagonist activity: electrically stimulated guinea pig left atrium; settings: 150 beats/min, low-calcium (0,6 mM) Tyrode solution; read-out: concentration qui inhibe de 50% l'augmentation de la force de contraction induite par l'addition de 0,6 mM de calcium
Method: L'activité anticalcique a été déterminée in vitro sur deux modèles expérimentaux.
Sur oreillette gauche de cobaye stimulée électriquement à 150 battements/mn dans une solution de Tyrode pauvre en calcium (0,6 mM), les COR3789, COR3792, COR4009, COR4010 et COR4011 employés respectivement à 25, 100, 50, 10 et 25 microg/ml inhibent de 50% l'augmentation de la force de contraction induite par l'addition de 0,6 mM de calcium.

[6] = test system: rat Wistar soumis à une surcharge saline; experiment: Diuretic activity in selected Wistar rats given a saline overload (modified Wiebelhaus test); format: in vivo
Method: L'activité diurétique des produits selon l'invention a été également déterminée chez le rat Wistar soumis à une surcharge saline selon une modification du test décrit par Wiebelhaus et coll., Fed. Proc., 1960, 19, 364, en procédant à une sélection des animaux. A la dose de 20 mg/kg, les COR4003, COR4008, COR4009, COR4010, COR4011, COR4012, COR4014, COR4016, COR4021, COR4025 augmentent l'excrétion urinaire volumétrique mesurée au bout de 6 heures de respectivement 56, 54, 65, 95, 73, 54, 33, 40, 99 et 92 %. L'excrétion urinaire du sodium augmente de respectivement 56, 24, 42, 59, 43, 33, 29, 43, 31, 83, 26, 99, 40 % toujours à cette dose pour les COR4003, COR4008, COR4009, COR4010, COR4011, COR4012, COR4014, COR4016, COR4017, COR4021, COR4023, COR4025 et COR4026. Le rapport Na/K demeure la plupart du temps inchangé. Testé dans les mêmes conditions le furosémide, administré à la dose de 20 mg/kg entraine 63% d'augmentation de l'excrétion urinaire volumétrique et 53% d'augmentation de l'excrétion urinaire du sodium.

[7] = test system: iléon de cobaye; experiment: Spasmolytic activity: guinea pig ileum contractions induced by transmural stimulation; settings: 2 microg/ml, oxygenated Krebs solution at 32°C; for inhibition at 2 µg/mL: read-out: inhibition de ces contractions
Method: L'activité spasmolytique a été déterminée in vitro par la mesure de l'effet du produit à tester sur les contractions de l'iléon de cobaye induites par stimulation transmurale dans une solution de Krebs oxygénée à 32°C. Le COR4010 et le COR3773 utilisés à la concentration de 2 microg/ml entrainent 50% d'inhibition de ces contractions.

[8] = test system: oedème induit par l'injection intraplantaire de carragénine chez le rat; experiment: Anti-inflammatory activity: carrageenan paw oedema in rats; format: in vivo; settings: oral 1 h before carrageenan, measured 3 h after
Method: L'activité antiinflammatoire a été déterminée chez le rat par la mesure de l'inhibition de l'oedème induit par l'injection intraplantaire de 0,1 ml d'une suspension à 1% de carragénine chez le rat. Les produits à tester sont administrés par voie orale lh avant l'injection de carragénine et la mesure est réalisée 3h après cette injection. Les COR3789, COR3792, COR4003, COR4008 et COR4010 administrés à 10b mg/kg entrainent respectivement 43, 42, 41, 38 et 39% d'inhibition. Administré à 200 mg/kg, le COR3773 entraine 53% d'inhibition. L'aspirine administrée dans les mêmes conditions à 150 mg/kg entraine 40% d'inhibition de l'oedème.

[9] = test system: rat soumis à une surcharge hydrique; experiment: Diuretic activity in rats given a water overload, oral; format: in vivo; settings: rat, water overload, oral; for response vs control in vivo at 20 mg/kg: read-out: facteur multipliant l'excrétion urinaire du sodium
Method: L'activité diurétique a été déterminée sur plusieurs modèles expérimentaux. Chez le rat soumis à une surcharge hydrique, administrés par voie orale à la dose de 20 mg/kg, le COR3760, le COR3789, le COR3792, le COR4002, le COR4003, le COR4009, le COR4010, le COR4012 et le COR4014 multiplient l'excrétion urinaire du sodium par respectivement un facteur 2,9 - 3,1 - 5,9 - 2,6 - 7,2 - 3,5 - 3,8 - 2,9 - 2,4. Administrés à la dose de 10 mg/kg, dans les mêmes conditions, les COR3760, COR3789, COR3792, COR4003 et COR4010 multiplient l'excrétion sodique par respectivement 2,3 - 2,9 - 2,8 - 2,4 et 2,5. La spironolactone multiplie quant à elle l'excrétion sodique d'un facteur 3,6 à la dose de 20 mg/kg. Administré à la dose de 5 mg/kg dans les mêmes conditions, le COR3792 multiplie l'excrétion sodique par 3,3. Administré par voie orale chez le rat ou la souris soumis à une surcharge saline, le COR3760 augmente l'excrétion urinaire volumétrique mesurée à la sixième heure de respectivement 49, 119 et 134% chez la souris et 28, 84 et 116% chez le rat après administration de 10, 20, et 40 mg/kg. Le COR3760 a été administré par voie orale au rat soumis à une surcharge hydrique et l'excrétion urinaire volumétrique, le sodium et le potassium excrétés ont été mesurés sur une période de 6 heures; ces paramètres ont varié de respectivement +17%, +102%, +165% à 10 mg/kg, +19%, +147%, +180% à 20 mg/kg et +36%, +415% et +239% à 40 mg/kg; le rapport Na/K passe de 0,56 chez les animaux témoins à 0,4 à 10 mg/kg, 0,49 à 20 mg/kg et 0, 8 à 40 mg/ kg. Au cours d'une seconde expérimentation, le COR3760 a entrainé des variations de +19%, +157%, +70% à 40 mg/kg, +19%, +319%, +90% à 60 mg/kg et +29%, +472% et +77% à 80 mg/kg; le rapport Na/K passe de 0,59 chez les animaux témoins à 0,88 à 40, 1,15 à 60 et 1,88 à 80 mg/kg.

[10] = test system: poumon de cobaye isolé perfusé; experiment: Bronchodilator activity: isolated perfused guinea pig lung contracted by methacholine; settings: flow of Tyrode solution, lung contracted by 0,05 microg/ml methacholine; read-out: concentration qui augmente ce débit de 50%
Source text: L'activité bronchodilatatrice a été déterminée in vitro par la mesure du débit d'une solution de Tyrode à travers un poumon de cobaye isolé perfusé, contracté par l'addition au fluide de perfusion de 0,05 microg/ml de méthacholine. Les COR3760, COR3789, COR3792, COR4003, COR4008, COR4010 et COR4014 utilisés respectivement aux concentrations de 50, 50, 100, 10, 50, 50 et 10 microg/ml augmentent ce débit de 50%. L'aminophylline entraine cette même activité à la concentration de 100 microg/ml.

[11] = test system: segments d'iléon de cobaye isolés; experiment: Anticholinergic activity: acetylcholine-induced contractions of isolated guinea pig ileum; settings: Cavia porcellus; contractions induced by 0,1 microg/ml acetylcholine; read-out: concentration qui inhibe ces contractions de 80%
Source text: L'activité anticholinergique a été appréciée par la mesure des contractions induites par 0,1 microg/ml d'acétylcholine sur des segments d'iléon de cobaye isolés. Les COR3760, COR3789, COR3792, COR4003, COR4008, COR4010, COR4014 utilisés respectivement aux concentrations de 50, 25, 25, 50, 25, 10, 25 microg/ml inhibent ces contractions de 80%.

[12] = test system: souris; experiment: Anticonvulsant activity: maximal electroshock convulsions in mice; format: in vivo; settings: mouse, oral, 100 mg/kg, one hour after administration
Source text: L'activité anticonvulsivante est appréciée dans le test de la prévention des convulsions induites par des électrochocs d'intensité maximale.

[13] = test system: souris; experiment: Anticonvulsant activity: bicuculline-induced convulsions in mice; format: in vivo; settings: mouse, i.p., 100 mg/kg
Method: L'activité anticonvulsivante est également déterminée dans le test des inhibitions des convulsions induites par la bicuculline. Des souris reçoivent par voie intrapéritonéale le produit à tester, puis 30 mn et 5 heures plus tard, deux injections séparées de 0,5 mg de bicuculline. […] Les résultats de ce test sont le reflet d'une activité gabaergique directe.

[14] = 6 h, read-out: augmentation de l'excrétion urinaire volumétrique mesurée au bout de 6 heures
[15] = read-out: augmentation de l'excrétion urinaire du sodium

Structure (SMILES)	inhibition de l'augmentation, induite par le calcium, des contractions spontanées [1]	mortalité ([3]; intraperitoneal, 200 mg/kg)	mortalité ([3]; oral, 300 mg/kg)	IC50 [5] [µg/mL]	facteur multipliant l'excrétion sodique ([9]; 10 mg/kg)	response vs control in vivo at 20 mg/kg [9] [%]	EC50 [10] [µg/mL]	inhibition de l'oedème ([8]; dose 10b mg/kg [sic]) [%]	IC80 [11] [µg/mL]	further results
CC(NCC1CC1)=C1C(=O)c2ccccc2C1=O [COR4011, (Cyclopropylméthylamino-1 éthylidényl)-2 indanedione-1,3]	inhibent l'augmentation	aucune mortalité	aucune mortalité	25 (≈ 104 µM)	–	–	–	–	–	effet chronotrope négatif intrinsèque ([2]; at the concentration inhibiting the histamine effect by 50 % (COR4003 100, COR4011 50 microg/ml)): ne présentant pas d'effet chronotrope négatif intrinsèque; IC50 ([2]; read-out: concentration qui inhibe de 50 % cet effet chronotrope, chronotropic effect induced by 5 microg/ml histamine): 207 µM; ptosis coté [4]: 4; change in vivo at 20 mg/kg [6, 14]: 73%; change in vivo at 20 mg/kg [6, 15]: 43%
CNC(C)=C1C(=O)c2ccc(Cl)cc2C1=O [COR3773, Chloro-5 (méthylamino-1 éthylidène)-2 indanedione-1,3]	–	aucune mortalité	aucune mortalité	–	–	–	–	–	–	inhibition at 2 µg/mL [7]: 50%; inhibition de l'oedème ([8]; 200 mg/kg): 53%
CC(NC(C)C)=C1C(=O)c2ccccc2C1=O [COR3792, (Isopropylamino-1 éthylidène)-2 indanedione-1,3]	–	aucune mortalité	aucune mortalité	100 (≈ 436 µM)	2,8	590	100 (≈ 436 µM)	42	25 (≈ 109 µM)	facteur multipliant l'excrétion sodique ([9]; 5 mg/kg): 3,3
CCCC(C)(COC(N)=O)COC(N)=O [méprobamate, reference compound]	–	–	–	–	–	–	–	–	–	prévention des convulsions induites par des électrochocs d'intensité maximale [12]: on n'observe plus de convulsions
CCNC(C)=C1C(=O)c2ccccc2C1=O [COR3789, (Ethylamino-1 éthylidène)-2 indanedione-1,3]	inhibent l'augmentation	aucune mortalité	aucune mortalité	25 (≈ 116 µM)	2,9	310	50 (≈ 232 µM)	43	25 (≈ 116 µM)	–
CCCCNC(C)=C1C(=O)c2ccccc2C1=O [COR4010, (Butylamino-1 éthylidényl)-2 indanedione-1,3]	inhibent l'augmentation	aucune mortalité	aucune mortalité	10 (≈ 41.1 µM)	2,5	380	50 (≈ 206 µM)	39	10 (≈ 41.1 µM)	inhibition at 2 µg/mL [7]: 50%; change in vivo at 20 mg/kg [6, 14]: 95%; change in vivo at 20 mg/kg [6, 15]: 59%
CCCC(CCC)C(=O)O [valproate de sodium, reference compound]	–	–	–	–	–	–	–	–	–	inhibition des convulsions induites par la bicuculline ([13]; first bicuculline injection (30 min later)): inhibe les convulsions induites par la première injection; inhibition des convulsions induites par la bicuculline ([13]; second bicuculline injection (5 hours later)): sans inhiber celles induites par la deuxième
COc1ccc(Cc2nccc3cc(OC)c(OC)cc23)cc1OC [papavérine, reference compound]	–	–	–	–	–	–	–	–	–	inhibition de ces contractions [7]: la même activité
